From the OligoGym collection
HELM strings list units from the 5' end as sugar, base in round brackets, then linkage (d deoxyribose, r ribose, m 2'-O-methyl, p phosphodiester). Strings are as the collection lists them; they lack the last nucleoside at the 3' end of the tested compound. [moe] = 2'-O-(2-methoxyethyl) (MOE); [sp] = phosphorothioate linkage; [m5C] = 5-methylcytosine

What follows are substances tested against ATXN2 (assay: mouse, dose not given). Conditions: ASO.

| Substance | 3 h FOB score [score 0-7] |
| --- | --- |
| RNA1{[moe](T)[sp].[moe](G)p.[moe](T)p.[moe](A)p.[moe]([m5C])[sp].d(T)[sp].d(T)[sp].d([m5C])[sp].d(A)[sp].d([m5C])[sp].d(A)[sp].d(T)[sp].d(T)[sp].d(T)[sp].d(G)[sp].[moe](G)p.[moe](A)p.[moe](G)[sp].[moe]([m5C])}$$$$ (last 3' nucleoside missing) | 3 |
| RNA1{[moe](T)[sp].[moe](G)p.[moe](T)p.[moe](A)p.[moe]([m5C])p.[moe](T)p.d(T)[sp].d([m5C])[sp].d(A)[sp].d([m5C])[sp].d(A)[sp].d(T)[sp].d(T)[sp].d(T)[sp].d(G)[sp].d(G)[sp].[moe](A)p.[moe](G)[sp].[moe]([m5C])}$$$$ (last 3' nucleoside missing) | 2.5 |
| RNA1{[moe](T)[sp].[moe](G)p.[moe](T)p.[moe](A)p.[moe]([m5C])p.d(T)[sp].d(T)[sp].d(T)[sp].d(T)[sp].d([m5C])[sp].d(T)[sp].d([m5C])[sp].d(A)[sp].d(T)[sp].d(G)[sp].[moe](T)p.[moe](G)p.[moe]([m5C])[sp].[moe](G)}$$$$ (last 3' nucleoside missing) | 1 |
| RNA1{[moe](T)[sp].[moe](G)p.[moe](T)p.[moe](A)p.[moe]([m5C])p.d(T)[sp].d(T)[sp].d([m5C])[sp].d(A)[sp].d(A)[sp].d(A)[sp].d(T)[sp].d(T)[sp].d(T)[sp].d(T)[sp].[moe](G)p.[moe](T)p.[moe](T)[sp].[moe](T)}$$$$ (last 3' nucleoside missing) | 0 |
| RNA1{[moe](T)[sp].[moe](G)p.[moe](T)p.[moe](A)p.[moe]([m5C])p.d(T)[sp].d(T)[sp].d([m5C])[sp].d(A)[sp].d([m5C])[sp].d(A)[sp].d(T)[sp].d(T)[sp].d(T)[sp].d(G)[sp].[moe](G)p.[moe](A)p.[moe](G)[sp].[moe]([m5C])}$$$$ (last 3' nucleoside missing) | 2 |
| RNA1{[moe](T)[sp].[moe](G)p.[moe](T)p.[moe](A)p.d([m5C])[sp].d(T)[sp].d(T)[sp].d([m5C])[sp].d(A)[sp].d([m5C])[sp].d(A)[sp].d(T)[sp].d(T)[sp].d(T)[sp].[moe](G)p.[moe](G)p.[moe](A)p.[moe](G)[sp].[moe]([m5C])}$$$$ (last 3' nucleoside missing) | 1 |
| RNA1{[moe](T)[sp].[moe](G)p.[moe](T)p.[moe](G)p.[moe](A)p.d(G)[sp].d(T)[sp].d(T)[sp].d([m5C])[sp].d(A)[sp].d([m5C])[sp].d([m5C])[sp].d(T)[sp].d(G)[sp].d([m5C])[sp].[moe](A)p.[moe](T)p.[moe]([m5C])[sp].[moe]([m5C])}$$$$ (last 3' nucleoside missing) | 3.5 |
| RNA1{[moe](T)[sp].[moe](G)p.[moe](T)p.[moe](G)p.[moe](T)p.d(A)[sp].d(T)[sp].d(T)[sp].d(T)[sp].d(T)[sp].d(T)[sp].d([m5C])[sp].d(T)[sp].d(T)[sp].d([m5C])[sp].[moe]([m5C])p.[moe](T)p.[moe]([m5C])[sp].[moe](A)}$$$$ (last 3' nucleoside missing) | 0.25 |
| RNA1{[moe](T)[sp].[moe](G)p.[moe](T)p.[moe](G)p.[moe](T)p.d(T)[sp].d([m5C])[sp].d(A)[sp].d(T)[sp].d(G)[sp].d(A)[sp].d([m5C])[sp].d(T)[sp].d(T)[sp].d(T)[sp].[moe]([m5C])p.[moe](A)p.[moe](A)[sp].[moe](G)}$$$$ (last 3' nucleoside missing) | 4.5 |
| RNA1{[moe](T)[sp].[moe](G)p.[moe](T)p.[moe](T)p.[moe](A)p.d([m5C])[sp].d(T)[sp].d(G)[sp].d(T)[sp].d(T)[sp].d(T)[sp].d([m5C])[sp].d(G)[sp].d(A)[sp].d([m5C])[sp].[moe]([m5C])p.[moe](T)p.[moe]([m5C])[sp].[moe](T)}$$$$ (last 3' nucleoside missing) | 6.25 |
| RNA1{[moe](T)[sp].[moe](G)p.[moe](T)p.[moe](T)p.[moe](A)p.d([m5C])[sp].d(T)[sp].d(T)[sp].d(A)[sp].d(T)[sp].d(T)[sp].d(A)[sp].d([m5C])[sp].d([m5C])[sp].d(T)[sp].[moe](T)p.[moe]([m5C])p.[moe]([m5C])[sp].[moe](T)}$$$$ (last 3' nucleoside missing) | 4 |
| RNA1{[moe](T)[sp].[moe](G)p.[moe](T)p.[moe](T)p.[moe](G)p.d(T)[sp].d(T)[sp].d(G)[sp].d(T)[sp].d(T)[sp].d(T)[sp].d(A)[sp].d([m5C])[sp].d(A)[sp].d(T)[sp].[moe](T)p.[moe](A)p.[moe](T)[sp].[moe](T)}$$$$ (last 3' nucleoside missing) | 0 |
| RNA1{[moe](T)[sp].[moe](G)p.[moe](T)p.[moe](T)p.[moe](G)p.d([m5C])[sp].d(A)[sp].d([m5C])[sp].d(A)[sp].d(T)[sp].d(A)[sp].d(G)[sp].d(G)[sp].d(T)[sp].d(T)[sp].[moe](A)p.[moe](G)p.[moe](A)[sp].[moe](A)}$$$$ (last 3' nucleoside missing) | 4 |
| RNA1{[moe](T)[sp].[moe](G)p.[moe](T)p.[moe](T)p.[moe](T)p.d(G)[sp].d(T)[sp].d(T)[sp].d(T)[sp].d(G)[sp].d(T)[sp].d(T)[sp].d(T)[sp].d(T)[sp].d(A)[sp].[moe](A)p.[moe](G)p.[moe](T)[sp].[moe](A)}$$$$ (last 3' nucleoside missing) | 6.5 |
| RNA1{[moe](T)[sp].[moe](G)p.[moe](T)p.[moe](T)p.[moe]([m5C])p.d(T)[sp].d(T)[sp].d([m5C])[sp].d([m5C])[sp].d(A)[sp].d(A)[sp].d(T)[sp].d(T)[sp].d(T)[sp].d([m5C])[sp].[moe](A)p.[moe](G)p.[moe](A)[sp].[moe]([m5C])}$$$$ (last 3' nucleoside missing) | 0 |
| RNA1{[moe](T)[sp].[moe](G)p.[moe](T)p.[moe]([m5C])p.[moe](A)p.d(T)[sp].d(A)[sp].d([m5C])[sp].d(T)[sp].d(G)[sp].d(T)[sp].d(A)[sp].d(T)[sp].d(T)[sp].d(G)[sp].[moe](T)p.[moe](T)p.[moe](T)[sp].[moe](T)}$$$$ (last 3' nucleoside missing) | 5.25 |
| RNA1{[moe](T)[sp].[moe](G)p.[moe]([m5C])p.[moe](A)p.[moe](A)p.d([m5C])[sp].d(T)[sp].d(T)[sp].d(A)[sp].d(A)[sp].d(T)[sp].d(A)[sp].d(A)[sp].d([m5C])[sp].d([m5C])[sp].[moe](T)p.[moe](T)p.[moe](A)[sp].[moe](G)}$$$$ (last 3' nucleoside missing) | 1.75 |
| RNA1{[moe](T)[sp].[moe](G)p.[moe]([m5C])p.[moe](T)p.[moe](A)[sp].d(A)[sp].d([m5C])[sp].d(T)[sp].d(G)[sp].d(G)[sp].d(T)[sp].d(T)[sp].d(T)[sp].[moe](G)p.[moe]([m5C])p.[moe]([m5C])[sp].[moe]([m5C])}$$$$ (last 3' nucleoside missing) | 6 |
| RNA1{[moe](T)[sp].[moe](G)p.[moe]([m5C])p.[moe](T)p.[moe](A)p.d(A)[sp].d([m5C])[sp].d(T)[sp].d(G)[sp].d(G)[sp].d(T)[sp].d(T)[sp].d(T)[sp].d(G)[sp].d([m5C])[sp].[moe]([m5C])p.[moe]([m5C])p.[moe](T)[sp].[moe](T)}$$$$ (last 3' nucleoside missing) | 7 |
